Experimental data published in patent publication US20260166057A1, “1,3,5(10),16-ESTRATETRAEN-3-YL ACETATE FOR USE IN IMPROVING PSYCHOMOTOR OR COGNITIVE PERFORMANCE” (priority 2023, published 2026).

Experiments:
[1] = system: isolated human nasal olfactory chemosensory neurons; assay: Electrophysiology: inward currents in isolated chemosensory neurons; assay type: cell-based
rat estrogen receptor = assay: In vitro agonist/antagonist activity on steroid receptors; assay type: biochemical
[2] = molecular target: rat glucocorticoid receptor (Rattus norvegicus, UniProt P06536); assay: as above; assay type: biochemical
[3] = Onset of effect after nasal administration; assay type: in vivo, human
Source text: Because of the rapid onset of effect of nasally administered ETA, and its safety, it is expected that ETA may be administered as needed once mental fatigue is sensed, for example immediately a mentally fatigued person senses sleepiness or a symptom of sleepiness (such as excessive yawning, closing the eyes, nodding of the head, etc.) or a decline in psychomotor or cognitive performance, to improve psychomotor and cognitive performance under those circumstances. It is also expected that ETA may be administered prophylactically to improve, or at least prevent the normal decline in, psychomotor and/or cognitive performance in persons who are, or are likely to become, mentally fatigued. Thus, for example, a firefighter, whose work schedule may require him or her to be available continuously for 72 hours even though he/she is allowed to sleep at night when not actually needed, might administer ETA to improve psychomotor and/or cognitive performance when awakened at night and called to fight a fire; or a pilot of an overnight flight, who flies the aircraft during an afternoon takeoff, rests during the overnight cruise portion of the flight, but then flies the aircraft again as it approaches and lands the next morning, might administer ETA to improve psychomotor and/or cognitive performance on rising from rest to perform the approach and landing.

healthy male volunteers = conditions: in vivo

Chain of rat glucocorticoid receptor (P06536 whole entry): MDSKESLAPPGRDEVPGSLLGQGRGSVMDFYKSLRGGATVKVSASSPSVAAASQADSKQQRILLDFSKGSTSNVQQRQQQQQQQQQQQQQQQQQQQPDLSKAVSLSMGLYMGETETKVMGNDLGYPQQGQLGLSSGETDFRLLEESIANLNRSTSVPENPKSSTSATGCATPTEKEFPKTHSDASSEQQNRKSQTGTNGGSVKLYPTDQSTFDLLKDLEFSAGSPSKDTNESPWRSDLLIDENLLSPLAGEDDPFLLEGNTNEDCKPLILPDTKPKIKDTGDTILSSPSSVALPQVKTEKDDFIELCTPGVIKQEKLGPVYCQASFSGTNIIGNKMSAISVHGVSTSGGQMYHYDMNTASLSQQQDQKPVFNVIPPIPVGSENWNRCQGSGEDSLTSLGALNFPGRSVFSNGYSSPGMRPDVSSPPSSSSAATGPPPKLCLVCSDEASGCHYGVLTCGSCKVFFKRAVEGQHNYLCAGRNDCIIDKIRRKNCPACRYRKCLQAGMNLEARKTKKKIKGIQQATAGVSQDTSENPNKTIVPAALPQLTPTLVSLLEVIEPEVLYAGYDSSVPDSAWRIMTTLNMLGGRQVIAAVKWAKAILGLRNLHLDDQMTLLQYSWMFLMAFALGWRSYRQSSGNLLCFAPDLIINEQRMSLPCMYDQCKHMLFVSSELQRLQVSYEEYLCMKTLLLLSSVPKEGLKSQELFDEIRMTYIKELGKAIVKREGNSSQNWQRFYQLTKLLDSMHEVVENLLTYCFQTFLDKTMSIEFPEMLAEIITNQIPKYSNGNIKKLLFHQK

## CC(=O)Oc1ccc2c(c1)CC[C@@H]1[C@@H]2CC[C@]2(C)C=CC[C@@H]12 [ETA, 1,3,5(10),16-Estratetraen-3-yl acetate]
[1]; dependence on concentration
  amplitude of the response: increased depending on the concentration of the compound
[1]; isolated human neurons
  inward currents in the membrane: induced inward currents
Rat estrogen receptor
  agonist or antagonist activity: no agonist or antagonist activity
[2]
  agonist or antagonist activity: no agonist or antagonist activity
[3]
  time to improvement in psychomotor and cognitive performance: ≤ 15 min
  time to initial physiological response: within a minute
Healthy male volunteers
  serious adverse events: no serious adverse events
